# Measured values: DBAASP
# Key:
# Experiment in all cases: ≥ marks a high value that may be exact or a test limit, other limits are often not marked, values filed in µg/mL are converted to µM
# [1] = test system: Escherichia coli ATCC 25922
# [2] = test system: Pseudomonas aeruginosa ATCC 27853
# Escherichia coli = test system: Escherichia coli
# Staphylococcus aureus = test system: Staphylococcus aureus
# [3] = test system: Staphylococcus aureus ATCC 25923
MIC [1] [µM],MIC [2] [µM],MIC (Escherichia coli) [µM],MIC (Staphylococcus aureus) [µM],MIC [3] [µM],Structure (SMILES)
> 100,> 100,–,–,–,CC[C@H](C)[C@H](NC(=O)[C@H](Cc1ccc(O)cc1)NC(=O)[C@H](CCC(N)=O)NC(=O)[C@H](CC(C)C)NC(=O)[C@H](C)N)C(=O)N[C@@H](CCCCN)C(=O)N[C@@H](CC(C)C)C(=O)N[C@@H](CC(C)C)C(=O)N[C@@H](CCCCN)C(=O)N[C@@H](CCC(=O)O)C(N)=O [ALQYIKLLKE]
–,–,25,6,–,CC[C@H](C)[C@H](NC(=O)[C@H](CCCCN)NC(=O)[C@H](CC(C)C)NC(=O)[C@H](C)NC(=O)[C@H](C)NC(=O)[C@H](CCCCN)NC(=O)[C@H](CC(C)C)NC(=O)[C@H](C)NC(=O)[C@H](CCCCN)NC(=O)CNC(=O)[C@H](CC(C)C)NC(=O)[C@H](Cc1ccccc1)NC(=O)[C@H](CO)NC(=O)CNC(=O)[C@H](Cc1ccccc1)NC(=O)CN)C(=O)NCC(=O)N[C@@H](C)C(=O)N[C@@H](CC(N)=O)C(=O)N[C@H](C(=O)N[C@@H](CC(C)C)C(=O)NCC(=O)NCC(=O)N[C@@H](C)C(=O)N1CCC[C@H]1C(=O)N[C@@H](CCC(=O)O)C(=O)N[C@@H](CCC(N)=O)C(=O)O)C(C)C [GFGSFLGKALKAALKIGANVLGGAPEQ]
–,–,50,12.5,–,CC[C@H](C)[C@H](NC(=O)CN)C(=O)NCC(=O)N[C@@H](CO)C(=O)N[C@@H](C)C(=O)N[C@@H](CC(C)C)C(=O)N[C@@H](C)C(=O)N[C@@H](CCCCN)C(=O)N[C@@H](C)C(=O)N[C@@H](C)C(=O)N[C@@H](CCCCN)C(=O)N[C@@H](CC(C)C)C(=O)N[C@H](C(=O)N[C@@H](C)C(=O)NCC(=O)N[C@H](C(=O)N[C@H](C(N)=O)C(C)C)[C@@H](C)CC)C(C)C [GIGSALAKAAKLVAGIV]
30,–,–,–,30,CC(C)C[C@H](NC(=O)CN)C(=O)N[C@@H](Cc1ccccc1)C(=O)N[C@@H](CC(=O)O)C(=O)N[C@H](C(=O)N[C@H](C(=O)N[C@@H](CCCCN)C(=O)NCC(=O)N[C@H](C(=O)N[C@@H](CC(C)C)C(=O)N[C@@H](CCCCN)C(=O)NCC(=O)N[C@@H](C)C(=O)NCC(=O)N[C@@H](CCCCN)C(=O)N[C@@H](CC(N)=O)C(=O)N[C@H](C(=O)N[C@@H](C)C(=O)NCC(=O)N[C@@H](CO)C(=O)N[C@@H](CC(C)C)C(=O)N[C@@H](CC(C)C)C(=O)N[C@@H](CCC(=O)O)C(=O)N[C@@H](CCC(N)=O)C(=O)N[C@@H](CC(C)C)C(=O)N[C@@H](CCCCN)C(=O)N[C@H]1CSSC[C@@H](C(=O)O)NC(=O)CNC(=O)CNC(=O)[C@H](CO)NC(=O)[C@H](CC(C)C)NC(=O)[C@H](CCCCN)NC1=O)C(C)C)C(C)C)C(C)C)C(C)C [GLFDVVKGVLKGAGKNVAGSLLEQLKCKLSGGC]
64,–,–,–,64,CC[C@H](C)[C@H](NC(=O)[C@H](CCC(N)=O)NC(=O)[C@H](CCCCN)NC(=O)[C@@H](NC(=O)[C@H](CC(C)C)NC(=O)[C@H](CCC(N)=O)NC(=O)[C@H](C)NC(=O)[C@H](Cc1ccccc1)NC(=O)[C@@H](NC(=O)[C@H](CC(=O)O)NC(=O)[C@H](CCCCN)NC(=O)CNC(=O)[C@@H](NC(=O)CNC(=O)[C@@H](NC(=O)[C@@H](NC(=O)[C@H](Cc1ccccc1)NC(=O)[C@H](CC(=O)O)NC(=O)[C@H](CC(C)C)NC(=O)[C@H](CC(C)C)NC(=O)CN)C(C)C)[C@@H](C)O)C(C)C)[C@@H](C)CC)[C@@H](C)CC)C(N)=O [GLLDFVTGVGKDIFAQLIKQI]
25.6,–,–,–,12.8,CC[C@H](C)[C@H](NC(=O)[C@@H](NC(=O)[C@H](CCCCN)NC(=O)[C@H](CC(C)C)NC(=O)[C@H](CC(C)C)NC(=O)CN)C(C)C)C(=O)N[C@@H](CCCCN)C(=O)N[C@H](C(=O)N[C@@H](CC(C)C)C(=O)N[C@@H](CC(C)C)C(N)=O)C(C)C [GLLKVIKVLL]
80,–,–,–,> 160,CC[C@H](C)[C@H](NC(=O)[C@@H](NC(=O)[C@H](CC(N)=O)NC(=O)[C@H](CC(C)C)NC(=O)[C@H](CC(C)C)NC(=O)CN)C(C)C)C(=O)N[C@@H](CCCCN)C(=O)N[C@@H](CC(=O)O)C(=O)N[C@H](C(=O)N[C@@H](C)C(=O)N[C@@H](CCC(N)=O)C(=O)N[C@@H](CC(N)=O)C(=O)N[C@@H](CC(C)C)C(=O)N[C@@H](Cc1ccccc1)C(=O)N[C@@H](C)C(=O)N[C@@H](C)C(=O)N[C@@H](C)C(=O)N[C@@H](CC(C)C)C(=O)N[C@@H](CC(=O)O)C(=O)N[C@@H](CCCCN)C(=O)N[C@@H](CC(C)C)C(=O)N[C@@H](CCCCN)C(=O)N[C@H]1CSSC[C@@H](C(=O)N[C@@H](CC(N)=O)C(=O)O)NC(=O)[C@H](CCCCN)NC(=O)[C@H]([C@@H](C)O)NC(=O)[C@H](C(C)C)NC(=O)[C@H](CCCCN)NC1=O)[C@@H](C)O [GLLNVIKDTAQNLFAAALDKLKCKVTKCN]
> 100,> 100,–,–,> 100,CC(C)[C@H](NC(=O)[C@H](Cc1ccc(O)cc1)NC(=O)[C@H](CO)NC(=O)[C@H](CCCCN)NC(=O)[C@@H](N)CCCCN)C(=O)N[C@@H](CCCN=C(N)N)C(=O)N[C@@H](CCCN=C(N)N)C(=O)N[C@@H](Cc1c[nH]c2ccccc12)C(=O)N[C@@H](CCCN=C(N)N)C(=O)N[C@@H](CO)C(N)=O [KKSYVRRWRS]
4,4,–,–,4,CC(C)C[C@H](NC(=O)[C@H](CCCCN)NC(=O)[C@H](CCCCN)NC(=O)[C@H](C)NC(=O)[C@H](CC(C)C)NC(=O)[C@H](CCCCN)NC(=O)[C@H](C)NC(=O)[C@H](CC(C)C)NC(=O)[C@H](CCCCN)NC(=O)[C@H](CCCCN)NC(=O)[C@H](C)NC(=O)[C@H](CC(C)C)NC(=O)[C@H](CCCCN)NC(=O)[C@H](C)NC(=O)[C@H](CC(C)C)NC(=O)[C@H](CCCCN)NC(=O)[C@H](CCCCN)NC(=O)[C@H](C)NC(=O)[C@H](CC(C)C)NC(=O)[C@@H](N)CCCCN)C(=O)N[C@@H](C)C(N)=O [KLAKKLAKLAKKLAKLAKKLA]
5.02,–,–,–,7.53,CC[C@H](C)[C@H](NC(=O)[C@@H](NC(=O)[C@H](CCCCN)NC(=O)[C@H](CC(C)C)NC(=O)[C@H](CC(C)C)NC(=O)[C@@H](N)CCCCN)C(C)C)C(=O)N[C@@H](CCCCN)C(=O)N[C@@H](CCCCN)C(=O)N[C@@H](CC(C)C)C(=O)N[C@@H](CC(C)C)C(N)=O [KLLKVIKKLL]
–,32,–,–,–,CC[C@H](C)[C@H](NC(=O)CNC(=O)[C@H](CCC(N)=O)NC(=O)CNC(=O)[C@H](Cc1c[nH]c2ccccc12)NC(=O)[C@H](CCCCN)NC(=O)[C@H](CCC(=O)O)NC(=O)[C@@H](NC(=O)[C@H](CCCCN)NC(=O)[C@H](CCCCN)NC(=O)[C@H](Cc1c[nH]c2ccccc12)NC(=O)[C@H](CC(C)C)NC(=O)[C@H](CCCCN)NC(=O)[C@H](Cc1c[nH]c2ccccc12)NC(=O)[C@@H](N)CCCCN)[C@@H](C)CC)C(=O)NCC(=O)N[C@@H](C)C(=O)N[C@H](C(=O)N[C@@H](CC(C)C)C(=O)N[C@@H](CCCCN)C(=O)N[C@@H](Cc1c[nH]c2ccccc12)C(=O)N[C@@H](CC(C)C)C(=O)N[C@H](C(=O)N[C@H](C(=O)N[C@@H](Cc1c[nH]c2ccccc12)C(=O)N[C@@H](CC(C)C)C(=O)O)[C@@H](C)O)[C@@H](C)O)C(C)C [KWKLWKKIEKWGQGIGAVLKWLTTWL]
> 31.5,–,–,–,> 31.5,CC[C@H](C)[C@H](NC(=O)[C@H](CCCN=C(N)N)NC(=O)[C@H](CCCCN)NC(=O)[C@@H](N)CC(C)C)C(=O)N[C@@H](CCCCN)C(=O)N[C@H](C(=O)N[C@@H](CC(C)C)C(=O)N[C@@H](CC(C)C)C(N)=O)[C@@H](C)O [LKRIKTLL]
–,–,–,–,23,CC(C)C[C@H](NC(=O)[C@H](C)NC(=O)[C@@H](N)CO)C(=O)N[C@H](C(=O)NCC(=O)N[C@H]1CSSC[C@@H](C(=O)N[C@@H](Cc2ccccc2)C(=O)NCC(=O)N[C@@H](CCCN=C(N)N)C(=O)NCC(=O)O)NC(=O)[C@@H]2CCCN2C(=O)[C@H](CCCCN)NC(=O)[C@@H]2CCCN2C(=O)[C@@H]2CCCN2C(=O)[C@H](Cc2c[nH]c3ccccc23)NC(=O)[C@H](CO)NC(=O)[C@H](CCCCN)NC(=O)[C@H]([C@@H](C)O)NC(=O)[C@H](Cc2c[nH]c3ccccc23)NC1=O)C(C)C [SALVGCWTKSWPPKPCFGRG]
23.6,–,–,–,11.8,CC(C)C[C@H](NC(=O)[C@H](C)NC(=O)[C@@H](N)CO)C(=O)N[C@H](C(=O)NCC(=O)N[C@H]1CSSC[C@@H](C(=O)N[C@@H](Cc2ccccc2)C(=O)NCC(=O)N[C@@H](CCCN=C(N)N)C(=O)O)NC(=O)[C@@H]2CCCN2C(=O)[C@H](CCCCN)NC(=O)[C@@H]2CCCN2C(=O)[C@@H]2CCCN2C(=O)[C@H](Cc2c[nH]c3ccccc23)NC(=O)[C@H](CO)NC(=O)[C@H](CCCCN)NC(=O)[C@H]([C@@H](C)O)NC(=O)[C@H](Cc2c[nH]c3ccccc23)NC1=O)C(C)C [SALVGCWTKSWPPKPCFGR]
–,–,> 123,–,–,CC[C@H](C)[C@H](NC(=O)[C@@H](N)C(C)C)C(=O)N[C@@H](C)C(=O)N[C@@H](Cc1ccccc1)C(=O)N[C@@H](C)C(=O)N[C@@H](CCCCN)C(=O)N[C@H](C(=O)N[C@@H](CCCCN)C(=O)N[C@@H](CCC(=O)O)C(=O)N[C@@H](C)C(=O)N[C@@H](CCCCN)C(=O)N[C@@H](C)C(=O)N[C@@H](CCCCN)C(=O)N[C@@H](CC(C)C)C(=O)N[C@@H](CCCCN)C(=O)NCC(=O)N[C@@H](CCC(N)=O)C(=O)N[C@@H](C)C(=O)N[C@@H](CCCCN)C(=O)NCC(=O)O)[C@@H](C)O [VIAFAKTKEAKAKLKGQAKG]
16,–,–,–,–,CC(C)C[C@H](NC(=O)[C@H](Cc1ccccc1)NC(=O)[C@@H]1CCCN1C(=O)[C@H](Cc1c[nH]c2ccccc12)NC(=O)[C@H](C)NC(=O)[C@H](Cc1c[nH]c2ccccc12)NC(=O)[C@@H]1CCCN1C(=O)[C@H](Cc1ccccc1)NC(=O)[C@H](CCCN=C(N)N)NC(=O)[C@H](CCCN=C(N)N)NC(=O)[C@@H](N)C(C)C)C(=O)N[C@@H](CCCN=C(N)N)C(=O)N[C@@H](CCCN=C(N)N)C(N)=O [VRRFPWAWPFLRR]
64,> 100,–,–,100,CC(C)[C@H](NC(=O)[C@H](Cc1ccc(O)cc1)NC(=O)[C@H](CO)NC(=O)[C@H](CCCCN)NC(=O)[C@@H](N)Cc1c[nH]c2ccccc12)C(=O)N[C@@H](CCCN=C(N)N)C(=O)N[C@@H](CCCN=C(N)N)C(=O)N[C@@H](Cc1c[nH]c2ccccc12)C(N)=O [WKSYVRRW]
